Here are results for seven compounds from US11066414B2, “Cot modulators and methods of use thereof” (Gilead Sciences, Inc., priority 2015, dated 2021).

Like-named read-outs stand apart in the source and are kept apart here.

Experiment [1] addresses Human Cot (Homo sapiens (Human), UniProt P41279). The experiment in a line: High Throughput Cot Biochemical Assay. The following applies: for IC50/EC50 [nM]: IC50 (Cot): first value of the cell IC50/EC50, recombinant human Cot catalytic domain, TR-FRET. On the technique in general: TR-FRET usually uses a lanthanide donor and a delayed reading to cut background.
The subject of experiment [2] is TNFα. The experiment in a line: Cot Monocyte TNFα Cell Based Assay. The following applies: for IC50/EC50 [nM]: EC50 (TNFα): second value of the cell IC50/EC50, TNFα by TR-FRET.
Experiment [3] addresses EGFR (Homo sapiens (Human), UniProt P00533). The experiment in a line: High Throughput EGFR Biochemical Assay. The conditions noted are these: Human EGFR cytoplasmic domain, TR-FRET. The procedure:
Example 42: High Throughput EGFR Biochemical Assay
EGFR activity was measured using KinEASE (Cisbio), a time-resolved fluorescence resonance energy transfer (TR-FRET) immunoassay. In this assay, EGFR-catalyzes the phosphorylation of a universal Tyrosine kinase peptide substrate labeled with XL665. Europium conjugated phosphor-tyrosine specific antibody binds the resulting phosphorylated peptide. Formation of phosphorylated peptide is quantified by TR-FRET with Europium as the donor and XL665 the acceptor. The assay was performed in two main steps. The first step is the kinase reaction step and the second step is the detection step with TR-FRET reagents. In brief, test compounds 1:3 serially diluted in DMSO were delivered into Corning white, low volume, non-binding 384 well plates using the Echo 550 acoustic liquid dispenser (Labcyte®). […] After 60 min of incubation at room temperature, 10 μL of Stop and Detect Solution (1:400 Europium Cryptate labeled anti-phosphorylated peptide antibody solution and 125 nM strepavidin-XL665 Tracer in a 50 mM Hepes pH 7.0 detection buffer containing sufficient EDTA) was added.

[4] abbreviates: Homo sapiens, Monocyte, read-out: EC50 TNF, LPS-stimulated human monocytes, TNFα.
Where [5] appears, read: IC50 HTRF, Cot HTRF (TR-FRET KinEASE) biochemical assay, 400 μM ATP.
[6] abbreviates: Homo sapiens, Monocyte, read-out: EC50 TNF, LPS-stimulated human monocytes, TNFα TR-FRET.

Human Cot, sequence (P41279 30-397): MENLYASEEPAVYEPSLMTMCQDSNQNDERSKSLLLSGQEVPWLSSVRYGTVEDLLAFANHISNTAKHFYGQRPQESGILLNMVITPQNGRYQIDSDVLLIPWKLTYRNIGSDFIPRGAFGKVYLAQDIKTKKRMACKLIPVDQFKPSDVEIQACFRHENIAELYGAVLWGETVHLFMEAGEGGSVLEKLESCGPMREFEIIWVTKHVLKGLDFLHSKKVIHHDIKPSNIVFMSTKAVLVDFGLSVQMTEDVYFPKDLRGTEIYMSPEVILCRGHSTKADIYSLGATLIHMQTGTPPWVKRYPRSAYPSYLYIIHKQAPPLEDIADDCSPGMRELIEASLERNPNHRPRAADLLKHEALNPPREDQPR
EGFR, sequence (P00533 669-1210): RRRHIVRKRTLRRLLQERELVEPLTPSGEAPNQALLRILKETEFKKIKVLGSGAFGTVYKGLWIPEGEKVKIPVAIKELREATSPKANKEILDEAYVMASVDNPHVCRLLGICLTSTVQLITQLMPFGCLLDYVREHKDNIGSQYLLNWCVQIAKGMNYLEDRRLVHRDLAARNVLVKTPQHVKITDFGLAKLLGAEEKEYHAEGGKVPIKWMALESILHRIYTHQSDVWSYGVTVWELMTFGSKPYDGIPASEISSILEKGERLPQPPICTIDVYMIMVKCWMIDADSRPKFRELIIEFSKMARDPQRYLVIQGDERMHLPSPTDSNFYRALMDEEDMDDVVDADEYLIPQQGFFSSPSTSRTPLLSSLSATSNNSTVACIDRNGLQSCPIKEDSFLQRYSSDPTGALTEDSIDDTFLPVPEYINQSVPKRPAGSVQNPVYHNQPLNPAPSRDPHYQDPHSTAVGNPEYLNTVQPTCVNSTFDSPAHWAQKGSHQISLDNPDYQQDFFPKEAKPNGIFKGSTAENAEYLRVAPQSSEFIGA

What is called IC50 is the concentration that gives 50% inhibition. For orientation: EC50 means the concentration at which the effect is half-maximal. For `CCN1CCC(n2cc([C@@H](Nc3cc(Cl)c4ncc(C#N)c(Nc5ccc(F)c(Cl)c5)c4c3)c3cccnc3)nn2)CC1` [Example 362, (S)-8-chloro-4-((3-chloro-4-fluorophenyl)amino)-6-(((1-(1-ethylpiperidin-4-yl)-1H-1,2,3-triazol-4-yl)(pyridin-3-yl)methyl)amino)-quinoline-3-carbonitrile], the IC50 in experiment [1] (IC50 HTRF, Cot HTRF (TR-FRET) biochemical assay) is 1 nM; in experiment [3], 3980 nM. For the same compound, the “IC50/EC50 [nM]: IC50 (Cot)” value in experiment [1] (400 μM ATP) was found to be 1 nM. Also, the EC50 in experiment [2] (setting [4]) came to 46 nM. In addition, the “IC50/EC50 [nM]: EC50 (TNFα)” value in experiment [2] (LPS-stimulated human monocytes) amounted to 46 nM.

Consider `Cn1cc([C@@H](Nc2cc(Cl)c3ncc(C#N)c(Nc4ccc(F)c(Cl)c4)c3c2)c2cccnc2)nn1` [Example 406, (S)-8-chloro-4-((3-chloro-4-fluoro-phenyl)amino)-6-(((1-methyl-1H-1,2,3-triazol-4-yl)(pyridin-3-yl)-methyl)amino)quinoline-3-carbonitrile], for which the “IC50/EC50 [nM]: IC50 (Cot)” value in experiment [1] (400 μM ATP) was 3 nM. Besides, the IC50 was 3 nM in experiment [1] (read-out: IC50 HTRF, Cot HTRF (TR-FRET) biochemical assay) and above 10000 nM in experiment [3]. For the same compound, the EC50 in experiment [2] (setting [4]) turned out to be 102 nM. The “IC50/EC50 [nM]: EC50 (TNFα)” value in experiment [2] (LPS-stimulated human monocytes) is reported as 102 nM.

Compound `Cc1nc(F)ccc1[C@@H](c1cn(C2(C(F)(F)F)CC2)nn1)N(C)c1cc(Cl)c2ncc(C#N)c(NCC(C)(C)C)c2c1` [Example 979, (S)-8-chloro-6-(((6-fluoro-2-methylpyridin-3-yl)(1-(1-(trifluoromethyl)cyclopropyl)-1H-1,2,3-triazol-4-yl)methyl)(methyl)amino)-4-(neopentylamino)quinoline-3-carbonitrile] had a concentration for half-maximal inhibition (IC50) in experiment [1] (setting [5]) of 244 nM. Also, the EC50 in experiment [2] (setting [6]) was found to be 1000 nM.

`CC(=O)c1cc(N[C@H](c2cn(C3(C(F)F)CC3)nn2)c2ccc(F)nc2C)cc2c(NCC(C)(C)C)c(C#N)cnc12` [Example 981, (S)-8-acetyl-6-(((1-(1-(difluoromethyl)cyclopropyl)-1H-1,2,3-triazol-4-yl)(6-fluoro-2-methylpyridin-3-yl)methyl)amino)-4-(neopentylamino)quinoline-3-carbonitrile]: in experiment [1] (setting [5]), half-maximal inhibition (IC50) was put at 4 nM. Besides, the EC50 in experiment [2] (setting [6]) was 20 nM.

As for `Cc1nc(F)ccc1[C@H](Nc1cc(Cl)c2ncc(C#N)c(NCC(C)(C)C)c2c1F)c1cn(C2(C(F)F)CC2)nn1` [Example 983, (S)-8-chloro-6-(((1-(1-(difluoromethyl)cyclopropyl)-1H-1,2,3-triazol-4-yl)(6-fluoro-2-methylpyridin-3-yl)methyl)amino)-5-fluoro-4-(neopentylamino)quinoline-3-carbonitrile], 9640 nM corresponded to half-maximal inhibition in experiment [1] (setting [5]) (IC50). Also, the EC50 in experiment [2] (setting [6]) turned out to be 1000 nM.

In the case of `Cc1nc(F)ccc1[C@H](Nc1cc(Cl)c2ncc(C#N)c(NCC(C)(C)C)c2c1)c1cn(CCCO)nn1` [Example 986, (S)-8-chloro-6-(((6-fluoro-2-methylpyridin-3-yl)(1-(3-hydroxypropyl)-1H-1,2,3-triazol-4-yl)methyl)amino)-4-(neopentylamino)quinoline-3-carbonitrile], the IC50 in experiment [1] (setting [5]) was 5 nM. In addition, in experiment [2] (setting [6]), the half-maximal effective concentration (EC50) came out at 141 nM.

“(S)-6-(((1-(1,1′-bi(cyclopropan)]-1-yl)-1H- 1,2,3-triazol-4-yl)(1-methoxylsoquinolin- 5-yl)methyl)amino)-8-chloro-4- (neopentylamino)quinoline-3-carbonitrile [Example 931]”: the IC50 in experiment [1] (read-out: IC50 HTRF, Cot HTRF (TR-FRET KinEASE) biochemical assay, 400 μM ATP) is 10 nM. In experiment [2] (read-out: EC50 TNF, LPS-stimulated human monocytes, TNFα TR-FRET), the EC50 came out at 134 nM.
